Test results as given in US7985556B2, “Method of screening apoptosis accelerating compound or anti-apoptotic compound and method of determining malignancy of neurodegenerative disease” (Hisamitsu Pharmaceutical Co., Inc., priority 2005, dated 2011).

Key:
Assay type in all cases: cell-based, human
[1] = tested on: NEDL1 gene expression in SH-SY5Y cells; test: Expression analysis by RT-PCR in cisplatin treated SH-SY5Y cells; settings: cisplatin 20 μM, total RNA
Procedure: The RT-PCR, Western blotting, immunoprecipitation, luciferase reporter assay and cell fractionation were performed according to the procedure described in Ando et al., J. Biol. Chem., 279: 25549-25561, 2004. Colony formation was performed according to the procedure described in Ozaki et al., Cancer Res., 59: 5902-5907, 1999.
Under the same conditions as in Example 1, SH-SY5Y cells were treated with cisplatin and cells were recovered at a prescribed time point, after which the total RNA was extracted and expression of the NEDL1, NEDL2, NEDD4, p21^WAF1 and p53 genes was analyzed by RT-PCR. GAPDH was used as an expression level control.

[2] = tested on: p21WAF1, phosphorylated p53, p53 and NEDL1 protein expression in SH-SY5Y cells; test: Expression analysis by Western blotting in cisplatin treated SH-SY5Y cells; settings: cisplatin 20 μM, total protein
Procedure: The RT-PCR, Western blotting, immunoprecipitation, luciferase reporter assay and cell fractionation were performed according to the procedure described in Ando et al., J. Biol. Chem., 279: 25549-25561, 2004. Colony formation was performed according to the procedure described in Ozaki et al., Cancer Res., 59: 5902-5907, 1999. Under the same conditions as in Example 1, SH-SY5Y cells were treated with cisplatin and cells were recovered at a prescribed time point, after which the total protein was extracted and the expression of p21^WAF1, phosphorylated p53 (p53 (Ser 15)), p53 and NEDL1 was analyzed by Western blotting. Actin was used as an expression level control.

SH-SY5Y cells = test: Apoptosis of SH-SY5Y cells by cisplatin treatment (TUNEL staining); settings: cisplatin final concentration 20 μM
Procedure: SH-SY5Y cells were cultured in the presence of cisplatin (final concentration: 20 μM). The cells were fixed with paraformaldehyde at prescribed time points after the start of culturing and subjected to TUNEL staining, and the TUNEL-positive cells were counted. […] The extent of cell death by cisplatin was detected.

N.N.[Cl][Pt][Cl] [cisplatin]
Expression of NEDL1 (RT-PCR) [1]: induced | Expression of NEDL1 (Western blotting) [2]: induced | Expression of p21WAF1 (Western blotting) [2]: induced | Expression of p53 (Western blotting) [2]: induced | Expression of phosphorylated p53 (p53 (Ser 15)) (Western blotting) [2]: induced | cell death (TUNEL-positive cells) (SH-SY5Y cells): detected
